Data on one substance can be found in patent publication US10869900B2, “Composition and products comprising senescent cells for use in tissue regeneration” (QRSkin GmbH, priority 2015, dated 2020).

In this assay the test system is Human primary keratinocyte BKB10002 cells. The assay can be described thus: Senescence induction by surfactant, β-Gal staining. To be noted: 2 uM NP40 for 14 days, EpiLife medium+S7 supplement, medium change every second day. It counts as cell-based. Here is the method: Human primary keratinocyte BKB10002 cells were treated with the surfactant NP40 in order to induce senescence. Cells were grown in EpiLife medium+S7 supplement without (control) or with 2 uM NP40 for 14 days with a medium change every second day. […] Protein concentrations in the supernatants of the cell cultures were quantified using the Bio-Plex® Multiplex Immunoassays or ELISA kits from BIO-RAD.

Turning to NP40, the “cells showing a positive β-Gal staining” value was found to be 11%.
